In patent publication US4269848A, “5-Substituted indan-2-carboxylic acid and functional derivatives” (Lipha, Lyonnaise Industrielle Pharmaceutique, priority 1976, dated 1981):
Where a name gives a salt, the structure may show the parent alone.

Key:
[1] = Acute toxicity, LD 50 (oral route), mice; conditions: mouse, in vivo
Description: A--The substances are of low toxicity. For example, the LD 50 value (oral route), determined in mice, of various compounds in accordance with the present invention are shown in column A of Table I.

[2] = system: erythema produced by ultra violet radiation; assay: Protective effect against erythema from ultra violet radiation (Winder et al.); assay type: in vivo, albino guinea pigs; conditions: Cavia porcellus; albino guinea pig, oral; amount reducing erythema by 50%; read-out: AD50, U.V.
Protocol: D--The protective effect against inflammation resulting from exposure to radiation was determined in albino guinea pigs using the method of Winder et al (Arch. Inv. Pharmacodyn. 1958, Vol. 116, page 261). The AD50 value was determined for the test substance, namely the amount which, when administered to the animal orally, reduced by 50% the erythema produced by exposing the shaved dorsal skin of the guinea pig to ultra violet radiation.

[3] = system: platelets; assay: In vitro inhibition of platelet aggregation induced by collagen (Born); assay type: cell-based; conditions: read-out: minimal active concentration, Platelet Aggregation Induced By Collagen
Protocol: E--The anti-inflammatory activity was also determined by the aggregation-inhibiting effect of the compounds in accordance with the present invention, in vitro, on platelets the aggregation of which was induced by collagen, in accordance with the method of Born (Journal of Physiology, 1962, Vol. 162, page 67). It is known that compounds which inhibit the activity or quantity of prostaglandin synthetase will inhibit the formation of prostaglandin PGE2 and the inflammatory and pyretic effect thereof. Since prostaglandin PGE2 also causes an increase in platelet aggregation, this test is an effective indication of anti-inflammatory and anti-pyretic activity due to inhibition of prostaglandin synthetase.

[4] = system: spasms of pain caused by the intraperitoneal injection of a solution of acetic acid; assay: Analgesic activity, acetic acid induced spasms of pain (Koster et al.); assay type: in vivo; conditions: mouse, oral; dose reducing spasms of pain by 50%; read-out: AD50, Acetic Acid
Protocol: B--Analgesic activity in the mouse was determined by the method of Koster et al. (Fed. Proc. 1959, Vol. 18, page 412). The active dose 50 (AD50) value for various compounds in accordance with the present invention was determined, namely, that dose which, when administered orally, reduces by 50% the spasms of pain caused by the intraperitoneal injection of a solution of acetic acid.

[5] = system: carrageenin-induced edema; assay: Anti-inflammatory activity, carrageenin-induced edema test (Winter et al.); assay type: in vivo; conditions: rat, oral; dose inhibiting edema by 30%; read-out: AD30, Carrageenin
Description: The protection afforded, by oral administration of the compound to a rat against edema induced by injecting a suspension of carrageenin under the arch of the foot of the animal was investigated. The AD30 dose is that which inhibits the edema by 30%.

[6] = Experiment A: clinical case studies, anti-inflammatory activity, oral administration; assay type: in vivo
Protocol: The following clinical experimentation was carried out to clinically test various compounds in accordance with the present invention for their anti-inflammatory, analgesic and platelet aggregation or clumping inhibition activites. […] Diagonsis: Seropositive, classic, rheumatoid polyarthritis, radioclinical stage IV Treatment: 600 mg/day for 3 weeks Diagnosis: Ankylosing spondylarthrittis with signs of peripheral joint inflammation Treatment: 600 mg/day for 3 weeks Diagnosis: Psoriatic peripheral rheumatism Treatment: 600 mg/day for 15 days

[7] = Case 1, rheumatoid polyarthritis, oral 600 mg/day for 3 weeks
[8] = Case 2, ankylosing spondylarthritis, oral 600 mg/day for 3 weeks
[9] = Case 3, psoriatic peripheral rheumatism, oral 600 mg/day for 15 days

Structure (SMILES) | LD50 [1] | ED50 [2] | minimal effective concentration [3] | ED50 [4] | ED30 [5] | further results
CCN(CC)CCOC(=O)C1Cc2ccc(C(=O)c3cccs3)cc2C1 (stereo not drawn) [2'-(N,N-diethylaminoethyl) 5-(2'-thenoyl)-indan-2-carboxylate, hydrochloride] | 2160 mg/kg | 10 mg/kg | 0.25 µg/mL | 4 mg/kg | 8 mg/kg | –
Cc1ccsc1C(=O)c1ccc2c(c1)CC(C(=O)O)C2 (stereo not drawn) [5-(3'-Methyl-2'-thenoyl)-indan-2-carboxylic acid] | 1200 mg/kg | 25 mg/kg | 10 µg/mL | 37 mg/kg | 26 mg/kg | –
O=C(c1ccccc1)c1ccc2c(c1)CC(C(=O)O)C2 (stereo not drawn) [5-benzoyl-indan-2-carboxylic acid] | 2100 mg/kg | 40 mg/kg | 2.5 µg/mL | 40 mg/kg | 18 mg/kg | –
O=C(c1ccc2c(c1)CC(C(=O)O)C2)c1ccco1 (stereo not drawn) [5-(2'-furoyl)-indan-2-carboxylic acid, 5-(2'-Furoyl)-indan-2-carboxylic acid] | 1000 mg/kg | 14 mg/kg | 1 µg/mL | 11 mg/kg | 23 mg/kg | –
CN(C)c1ccc(C(=O)c2ccc3c(c2)CC(C(=O)O)C3)cc1 (stereo not drawn) [5-(4'-dimethylaminobenzoyl)-indan-2-carboxylic acid] | 960 mg/kg | 20 mg/kg | 0.5 µg/mL | 3 mg/kg | 14 mg/kg | –
O=C(c1ccc2c(c1)CC(C(=O)O)C2)c1cc(Cl)c(Cl)s1 (stereo not drawn) [5-(4',5'-dichloro-2'-thenoyl)-indan-2-carboxylic acid] | 180 mg/kg | 90 mg/kg | 7.5 µg/mL | 30 mg/kg | 42 mg/kg | –
Cc1ccc(C(=O)c2ccc3c(c2)CC(C(=O)O)C3)s1 (stereo not drawn) [5-(5'-Methyl-2'-thenoyl)-indan-2-carboxylic acid] | 3000 mg/kg | 14 mg/kg | 1 µg/mL | 12 mg/kg | 7.5 mg/kg | Tolerance ([6]; Case 1, oral 600 mg/day for 3 weeks): Very good clinical and biological tolerance; Conclusion [6, 7]: Good result; erythrocyte sedimentation rate (ESR) [6, 7]: decrease; mobility [6, 7]: Improved mobility; morning stiffness [6, 7]: Decrease; peripheral pain [6, 7]: Decrease; Conclusion [6, 8]: Good result; analgesic effect [6, 8]: Good analgesic effect; articular perimeters [6, 8]: decrease in articular perimeters; effectiveness compared with phenylbutazone [6, 8]: As effective as phenylbutazone; mobility [6, 8]: Good mobility; Tolerance ([6]; Case 2, oral 600 mg/day for 3 weeks): Good clinical and biological tolerance; Tolerance ([6]; Case 3, oral 600 mg/day for 15 days): Good clinical and biological tolerance; Conclusion [6, 9]: Very good result; articular perimeter [6, 9]: decrease in articular perimeter; local heat [6, 9]: decrease in local heat; morning pain [6, 9]: Decrease in morning pain
CCN(CC)CCNC(=O)C1Cc2ccc(C(=O)c3ccccc3)cc2C1 (stereo not drawn) [N-[2'-(N',N'-diethylaminoethyl)] 5-benzoyl-indan-2-carboxamide] | 1100 mg/kg | 25 mg/kg | 2.5 µg/mL | 30 mg/kg | 9 mg/kg | –
O=C(c1ccc2c(c1)CC(C(=O)O)C2)c1cccs1 (stereo not drawn) [5-(2'-thenoyl)-indan-2-carboxylic acid] | 1200 mg/kg | 21 mg/kg | 2.5 µg/mL | 6.5 mg/kg | 10 mg/kg | –
COc1ccc(C(=O)c2ccc3c(c2)CC(C(=O)O)C3)cc1 (stereo not drawn) [5-(4'-Methoxybenzoyl)-indan-2-carboxylic acid] | 650 mg/kg | 34 mg/kg | 2.5 µg/mL | 6 mg/kg | 13 mg/kg | –
CCN(CC)CCNC(=O)C1Cc2ccc(C(=O)c3cccs3)cc2C1 (stereo not drawn) [N-[2'-(N',N'-diethylaminoethyl)]5-(2'-thenoyl)-indan-2-carboxamide] | 660 mg/kg | 10 mg/kg | 0.25 µg/mL | 2.5 mg/kg | 8 mg/kg | –
CN(C)S(=O)(=O)c1ccc(C(=O)c2ccc3c(c2)CC(C(=O)O)C3)cc1 (stereo not drawn) [5-(p-dimethylaminosulfonylbenzoyl)-indan-2-carboxylic acid] | 2600 mg/kg | > 300 mg/kg | 10 µg/mL | 80 mg/kg | 160 mg/kg | –
O=C(c1ccoc1)c1ccc2c(c1)CC(C(=O)O)C2 (stereo not drawn) [5-(3'-furoyl)-indan-2-carboxylic acid, 5-(3'-Furoyl)-indan-2-carboxylic acid] | 2400 mg/kg | 18 mg/kg | 5 µg/mL | 16 mg/kg | 20 mg/kg | –
COC(=O)C1Cc2ccc(C(=O)c3ccco3)cc2C1 (stereo not drawn) [methyl 5-(2'-furoyl)-indan-2-carboxylate, Methyl 5-(2'-furoyl)-indan-2-carboxylate] | 3200 mg/kg | 19 mg/kg | 1 µg/mL | 9 mg/kg | 13 mg/kg | –
Cc1ccc(C(=O)c2ccc3c(c2)CC(C(=O)O)C3)o1 (stereo not drawn) [5-(5'-Methyl-2'-furoyl)-indan-2-carboxylic acid] | 2400 mg/kg | 16 mg/kg | 1 µg/mL | 8 mg/kg | 10 mg/kg | –
CCN(CC)CCNC(=O)C1Cc2ccc(C(=O)c3cc(Cl)ccc3Cl)cc2C1 (stereo not drawn) [N-[2'-(N',N'-diethylaminoethyl)]5-(2',5'-dichlorobenzoyl)-indan-2-carboxamide] | 720 mg/kg | 50 mg/kg | 2.5 µg/mL | 15 mg/kg | 25 mg/kg | –
CCN(CC)CCOC(=O)C1Cc2ccc(C(=O)c3ccco3)cc2C1 (stereo not drawn) [2'-(N,N-diethylaminoethyl) 5-(2'-furoyl)-indan-2-carboxylate] | 1200 mg/kg | 20 mg/kg | 1 µg/mL | 8 mg/kg | 18 mg/kg | –
CS(=O)(=O)c1ccc(C(=O)c2ccc3c(c2)CC(C(=O)O)C3)cc1 (stereo not drawn) [5-(p-methylsulfonylbenzoyl)-indan-2-carboxylic acid] | 2800 mg/kg | 10 mg/kg | 1 µg/mL | 35 mg/kg | 40 mg/kg | –
NS(=O)(=O)c1ccc(C(=O)c2ccc3c(c2)CC(C(=O)O)C3)cc1 (stereo not drawn) [5-(p-sulfamidobenzoyl)-indan-2-carboxylic acid] | > 3200 mg/kg | 90 mg/kg | 5 µg/mL | 25 mg/kg | 43 mg/kg | –
CCOC(=O)C1Cc2ccc(C(=O)c3ccc(NC(C)=O)c(Cl)c3)cc2C1 (stereo not drawn) [Ethyl 5-(4'-acetamido-3'-chlorobenzoyl)-indan-2-carboxylate] | 3200 mg/kg | 80 mg/kg | 5 µg/mL | 35 mg/kg | 60 mg/kg | –
